The target in this assay is T1, DAT (h) (antagonist radioligand) (Homo sapiens, UniProt Q01959).
T1 construct: CEREP (Eurofins, France), contract panel
Nature of the assay: Radioligand binding panel (Eurofins/CEREP), DAT. The note with it: % inhibition of control specific binding. Here is the method:
Benedin was tested at 10^−5 M, calculated as a % inhibition of control specific binding of a radioactively labeled ligand specific for each target.
This binding profile panel was broadly defined with roughly an equal number of selective, central and peripheral therapeutically relevant targets, including native animal tissues, radioligands and specific enzymes involved in cell cycle regulation in accordance with Eurofins Standard Operating Procedure.
For radioligand binding experiments, the half maximal inhibitory concentration (IC50) and the half maximal effective concentration (EC50) values were determined (via computer software) by nonlinear regression analysis of the competition curves using Hill equation curve fitting. The inhibition constants (Ki) were calculated using the Cheng-Prusoff equation (Ki=IC50/(1+(L/KD)), where L is the concentration of radioligand in the assay, and KD is the affinity of the radioligand for the receptor.^60
The results are expressed as a % control specific binding ([measured specific binding/control specific binding]×100) and as a % inhibition of control specific binding (100−[(measured specific binding/control specific binding)×100] obtained in the presence of the test compounds. […]

T1 sequence (Q01959 whole entry): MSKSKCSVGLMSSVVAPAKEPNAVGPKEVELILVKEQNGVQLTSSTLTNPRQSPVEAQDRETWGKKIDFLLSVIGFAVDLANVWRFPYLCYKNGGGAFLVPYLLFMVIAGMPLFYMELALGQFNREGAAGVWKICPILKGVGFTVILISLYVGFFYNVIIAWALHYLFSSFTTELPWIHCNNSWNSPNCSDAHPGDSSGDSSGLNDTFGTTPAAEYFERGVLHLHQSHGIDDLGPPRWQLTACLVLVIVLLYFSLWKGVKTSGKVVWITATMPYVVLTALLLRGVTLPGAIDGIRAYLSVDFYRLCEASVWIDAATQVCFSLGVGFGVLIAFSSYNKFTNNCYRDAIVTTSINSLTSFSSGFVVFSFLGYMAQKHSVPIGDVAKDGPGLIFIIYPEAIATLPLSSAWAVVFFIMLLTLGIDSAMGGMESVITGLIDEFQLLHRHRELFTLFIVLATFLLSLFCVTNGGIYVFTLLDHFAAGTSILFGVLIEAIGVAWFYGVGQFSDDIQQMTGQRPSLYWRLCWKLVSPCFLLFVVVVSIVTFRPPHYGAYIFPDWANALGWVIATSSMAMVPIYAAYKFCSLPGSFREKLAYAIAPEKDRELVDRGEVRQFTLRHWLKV

As to `CN1CCCC(O)C1C(c1ccccc1)c1ccccc1` (centres unmarked) [Benedin, 2-benzhydryl-3-hydroxy-N-methyl-piperidine], the “% Inhibition at 10^−5M Benedin” value is given as “appreciable potencies”. For the same molecule, for the setting “10^−5 M, read-out: % Inhibition at 10^−5M Benedin”, the inhibition at 10 µM was found to be 99.1%.

The inhibition is how much of the control response was suppressed.
